In patent US8592403B2, “Diazepine and diazocane compounds as MC4 agonists” (Pfizer Limited, priority 2008, dated 2013):

What was measured:
human MC3 receptors = target: T1, human MC3 receptors (Homo sapiens, UniProt P41968); experiment: In vitro agonist potency (EC50) at melanocortin receptor type 3, cAMP in recombinant cell line; assay type: cell-based
T1 construct: stably transfected with full length cDNA encoding human MC1 or MC3 receptors; expressed in transfected cells
Description: Measurement of In Vitro Agonist Potency (EC50) of Compounds Against Melanocortin Receptors Type 1 and 3 (MC1 and MC3).
Activation of melanocortin (MC) receptors by agonists results in activation of intracellular adenylate cyclase enzymes that synthesise the second messenger signalling molecule, adenosine 3′,5′-cyclic monophosphate (cAMP). Changes in cAMP levels following treatment of recombinant MC1 and MC3 cell lines with test compound were measured and an MC1 and MC3 potency estimate (EC50) calculated as follows: […]
Human embryonic kidney (HEK) or Chinese hamster ovary cell lines stably transfected with full length cDNA encoding human MC1 or MC3 receptors, respectively, were established using standard molecular biology methods. Test compounds were dissolved in dimethyl sulfoxide (DMSO) at 4 mM. 11 point half log unit increment dilution series of test compound, typically starting at 50 uM were prepared in a buffer comprised of phosphate buffered saline (PBS), 2.5% DMSO and 0.05% pluronic F-127 surfactant. Freshly cultured cells at 80-90% confluence were harvested and re-suspended in Dulbecco's Modified Eagle's Medium (DMEM). Cells (10,000 for MC3, 20,000 for MC1) were added to the test compound dilution series in a 384 well assay plate and incubated for 1 hour at 37° C. The relative cAMP concentration in each well was then measured using a β-galactosidase enzyme fragment complementation method purchased in kit form as the Discoverx cAMP II kit from GE Healthcare/Amersham Biosciences UK. In the case of MC1,3-Isobutyl-1-methylxanthine (IBMX) at a concentration of 750 μM was included in DMEM as the cells were re-suspended for assay. […] Sigmoidal curves were fitted to plots of log10 inhibitor concentration vs percent effect using a custom made software application called SIGHTS and EC50 estimates determined by the software as the concentration of test compound giving an effect half way between the bottom and top asymptotes of the sigmoidal dose response curve. Each experiment included an EC50 determination for alpha melanocyte stimulating hormone, which was used as a standard to track assay consistency and allow fair comparison between EC50 estimates obtained in different experiments.

MC4 receptor = MC4 receptor (Homo sapiens, UniProt P32245); experiment: MC4 EC50 functional potency (protocol E of US2005/0176772 / WO 2005/077935); assay type: cell-based
Description: The compounds of formula (I) of the present invention have utility as MCR4 agonists in the treatment of various disease states.
MC5 and MC4 EC50 activity was determined as described by assay protocols D and E, respectively, in US2005/0176772 (pages 28-30).

MC4 receptor (MC4R) = target: T2, MC4 receptor (MC4R) (Homo sapiens, UniProt P32245); experiment: Nle4, D-Phe7-α-MSH inhibition at the MC4 receptor (competition binding, SPA, CHO-CRE MC4R membranes)
T2 construct: expressed in transfected cells; host or cells: CHO-CRE MC4R cells (membranes)
Method in brief: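 Competition binding by SPA used CHO-CRE MC4R membranes on WGA beads (0.15 ug membrane/well) with 0.06 nM [125I] Nle4, D-Phe7-α-MSH and 11 half-log competitor concentrations in duplicate. Buffer was 25 mM HEPES pH 7 with MgCl2, CaCl2, Pluronic F68 and protease inhibitors; incubation was 12 hours at room temperature. Non-specific binding was set with 100 nM SHU9119, and Ki was calculated.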

CYP3A4 = target: T3, CYP3A4 (Homo sapiens, UniProt P08684); experiment: High density DDI 3 μM cocktail screen in human liver microsomes, midazolam probe; assay type: in vitro ADME; settings: human, liver microsomes, probe midazolam, read-out: % inhibition 3A4 @ 3 μM
T3 construct: utilizes human liver microsomes together with isoform-specific clinical drug probes; from tissue; host or cells: human liver microsomes
Method in brief: (§1)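 Pooled human liver microsomes incubated with isoform-specific clinical probe substrates as a cocktail (midazolam for CYP3A4), with or without test compound at 3 μM. Metabolite formation followed over time by LC-MS/MS. Inhibition expressed as a single-point percentage.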

[1] = In vitro metabolism rate determination, human liver microsome (HLM) assay; assay type: in vitro ADME; settings: for microsomal CLint at 1 μM: human, liver microsomes, read-out: HLM: Clint, app; for HLM: Clint, app: human liver microsomes, unit assumed
Method in brief: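 Human liver microsomes at 0.5 nmol cytochrome P450/ml with 1 μM substrate, pre-warmed 5 min at 37° C, reaction started with NADP; samples taken 0–60 min and terminated. Substrate loss measured; first-order rate constant from log-linear regression converted to half-life or Clint (μl/min/mg protein).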

cytochrome P450 3A4 = target: T4, cytochrome P450 3A4 (Homo sapiens, UniProt P08684); experiment: High density DDI 3 μM cocktail screen in human liver microsomes, midazolam probe; assay type: in vitro ADME; settings: 3 µM
T4 construct: utilizes human liver microsomes together with isoform-specific clinical drug probes; from tissue; host or cells: human liver microsomes
Method in brief: as §1

MC3 receptor (MC3R) = target: T5, MC3 receptor (MC3R) (Homo sapiens, UniProt P41968); experiment: Nle4, D-Phe7-α-MSH inhibition at the MC3 receptor (competition binding, SPA, CHO-CRE MC3R membranes)
T5 construct: expressed in transfected cells; host or cells: CHO-CRE MC3R cells (membranes)
Method in brief: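 Competition binding by SPA used CHO-CRE MC3R membranes on WGA beads with 0.06 nM [125I]Nle4,D-Phe7-α-MSH and 11 half-log competitor concentrations. Buffer was 25 mM HEPES, MgCl2, CaCl2, 1% Pluronic F68, pH7, incubated 12 h at room temperature. Non-specific binding was defined with 100 nM SHU9119, and Ki values were derived.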

Chain of MC4 receptor (P32245 whole entry): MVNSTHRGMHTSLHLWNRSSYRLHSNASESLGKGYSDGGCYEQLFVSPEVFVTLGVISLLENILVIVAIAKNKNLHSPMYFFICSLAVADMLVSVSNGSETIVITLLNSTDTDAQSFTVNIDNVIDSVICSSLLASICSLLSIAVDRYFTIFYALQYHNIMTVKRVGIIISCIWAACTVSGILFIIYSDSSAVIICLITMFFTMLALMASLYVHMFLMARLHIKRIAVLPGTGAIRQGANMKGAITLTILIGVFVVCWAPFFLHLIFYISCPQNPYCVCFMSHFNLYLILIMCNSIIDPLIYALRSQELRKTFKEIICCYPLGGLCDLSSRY
T2 sequence (P32245 whole entry): as above
T3 sequence (P08684 whole entry, canonical isoform): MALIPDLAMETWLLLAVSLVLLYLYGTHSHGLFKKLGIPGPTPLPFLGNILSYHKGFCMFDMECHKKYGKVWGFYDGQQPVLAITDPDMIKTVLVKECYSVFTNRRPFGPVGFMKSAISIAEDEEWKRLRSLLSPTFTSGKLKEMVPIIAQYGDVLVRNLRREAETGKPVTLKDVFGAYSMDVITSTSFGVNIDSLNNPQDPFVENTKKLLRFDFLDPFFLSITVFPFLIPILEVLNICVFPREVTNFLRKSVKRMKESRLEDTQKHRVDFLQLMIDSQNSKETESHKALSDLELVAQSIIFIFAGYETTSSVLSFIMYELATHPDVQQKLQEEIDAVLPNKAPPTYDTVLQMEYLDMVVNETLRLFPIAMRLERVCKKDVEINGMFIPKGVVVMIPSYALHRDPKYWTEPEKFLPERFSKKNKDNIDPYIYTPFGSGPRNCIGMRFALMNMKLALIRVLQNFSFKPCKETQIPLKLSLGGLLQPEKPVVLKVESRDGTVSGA
T5 sequence (P41968 whole entry): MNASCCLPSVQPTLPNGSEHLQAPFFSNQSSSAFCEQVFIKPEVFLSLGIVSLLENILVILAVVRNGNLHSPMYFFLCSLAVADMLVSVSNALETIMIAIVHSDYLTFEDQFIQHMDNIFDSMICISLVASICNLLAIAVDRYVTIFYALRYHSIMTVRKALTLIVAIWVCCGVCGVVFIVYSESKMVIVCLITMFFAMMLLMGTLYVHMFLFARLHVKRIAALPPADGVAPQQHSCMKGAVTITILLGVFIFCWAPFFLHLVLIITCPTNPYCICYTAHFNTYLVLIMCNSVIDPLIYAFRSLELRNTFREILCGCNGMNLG
T1 sequence (P41968 whole entry): as above
T4 sequence (P08684 whole entry, canonical isoform): as the sequence (P08684 whole entry, canonical isoform) above

SMILES	EC50 (human MC3 receptors)	EC50 (MC4 receptor)	Ki (MC4 receptor (MC4R))	inhibition at 3 µM (CYP3A4)	microsomal CLint at 1 μM [1]	% inhibition 3A4 @ 3 μM (cytochrome P450 3A4)	HLM: Clint, app [1]	Ki (MC3 receptor (MC3R))
COC(=O)N1CCN(C(=O)[C@@H]2CN(c3cccnn3)C[C@H]2c2ccc(F)cc2F)CCCC1c1ccccc1 (mixture of isomers) [Example 100]	436 nM	7.16 nM	189 nM	65.5%	83 µL/min/mg			
CS(=O)(=O)N1CCN(C(=O)[C@@H]2CN(c3ccc(C#N)cn3)C[C@H]2c2ccc(F)cc2F)CCCC1c1ccccc1 (single isomer, unassigned) [Example 40]	607 nM	29 nM				79.5%	156 µL/min/mg	
COc1ccc([C@@H]2CN(c3ccc(=O)[nH]n3)C[C@H]2C(=O)N2CCCC(c3ccc(Cl)cc3)N(S(C)(=O)=O)CC2)c(F)c1 (single isomer, unassigned) [Example 114]		73.4 nM	20.8 nM			27.5%	16.4 µL/min/mg	1150 nM
COC(=O)N1CCN(C(=O)[C@@H]2CN(c3ccc(C#N)nn3)C[C@H]2c2ccc(OC)cc2F)CCC[C@@H]1c1ccc(Cl)cc1 [Example 88]	148 nM	5.38 nM	24 nM					153 nM

Other lines, results leading:

EC50 (human MC3 receptors)	EC50 (MC4 receptor)	Ki (MC4 receptor (MC4R))	inhibition at 3 µM (CYP3A4)	microsomal CLint at 1 μM [1]	% inhibition 3A4 @ 3 μM (cytochrome P450 3A4)	HLM: Clint, app [1]	Ki (MC3 receptor (MC3R))	SMILES
506 nM	2.23 nM		60.8%	21.4 µL/min/mg				COc1ccc([C@@H]2CN(c3ccc(=O)n(C)n3)C[C@H]2C(=O)N2CCC[C@@H](c3ccc(Cl)cc3)N(C(=O)C3CC3)CC2)c(F)c1 [Example 29]
412 nM	1.23 nM	28.2 nM	40.8%	21.8 µL/min/mg				COc1ccc([C@@H]2CN(c3ccc(=O)n(C)n3)C[C@H]2C(=O)N2CCC[C@@H](c3ccc(Cl)cc3)N(C(=O)C(C)C)CC2)c(F)c1 [Example 31]
764 nM	14.3 nM	31.3 nM					402 nM	COC(=O)N1CCN(C(=O)[C@@H]2CN(c3ccc(C#N)nn3)CC2c2ccc(OC)cc2F)CCC[C@H]1c1ccc(Cl)cc1 (stereo partly shown) [Example 89]
